Where “and” joins values, the source holds several entries; their conditions need not be identical. Identical values can stand only once. Like-named read-outs stand apart in the source and are kept apart here.
Assays:
[1] = test system: winter rape (Brassica napus, BRSNW); assay: Postemergence herbicidal activity, greenhouse trial (visual injury 0-100%); type: in vivo
[2] = test system: common lambsquarters (Chenopodium album L., CHEAL); assay: as above; type: in vivo; conditions: Chenopodium album, post-emergence, read-out: % visual injury Obs
Summary of the method: (§1)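 Greenhouse postemergence test, ~23 °C day, 22 °C night. Two-way combinations were sprayed at 187 L/ha in 1.5% v/v crop oil concentrate, and percent injury was scored visually after 20-22 d.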

[3] = test system: wild oat (Avena fatua, AVEFA); assay: as above; type: in vivo
Summary of the method: as §1

[4] = test system: ivyleaf morning-glory (Ipomoea hederacea, IPOHE); assay: as above; type: in vivo; conditions: Ipomoea hederacea, post-emergence, read-out: % visual injury Obs
Summary of the method: as §1

[5] = test system: barnyardgrass (Echinochloa crus-galli, ECHCG); assay: as above; type: in vivo; conditions: Echinochloa crus-galli, post-emergence, read-out: % visual injury Obs
Summary of the method: as §1

[6] = test system: chickweed (Stellaria media, STEME); assay: as above; type: in vivo; conditions: Stellaria media, post-emergence, read-out: % visual injury Obs
Summary of the method: as §1

[7] = test system: sunflower (Helianthus annuus, HELAN); assay: as above; type: in vivo
[8] = test system: giant foxtail (Setaria faberi, SETFA); assay: as above; type: in vivo
[9] = test system: spring rape (Brassica napus, BRSNN); assay: as above; type: in vivo
[10] = test system: winter wheat (Triticum aestivum, TRZAW); assay: Postemergence crop injury (phytotoxicity), greenhouse trial (visual injury 0-100%); conditions: 7.5 g ai/ha
Procedure: Seeds of the desired test plant species were planted in Sun Gro MetroMix® 306 planting mixture, which typically has a pH of 6.0 to 6.8 and an organic matter content of about 30 percent, in plastic pots with a surface area of 103.2 square centimeters (cm^2). […] The plants were grown for 7-36 days (d) in a greenhouse with an approximate 14-hour (h) photoperiod which was maintained at about 23° C. during the day and 22° C. during the night. Nutrients and water were added on a regular basis and supplemental lighting was provided with overhead metal halide 1000-Watt lamps as necessary. The plants were employed for testing when they reached the second or third true leaf stage.
Weighed amounts of technical material were dissolved in a volume of 97:3 volume per volume (v/v) acetone/dimethyl sulfoxide (DMSO) to stock solutions. […] The concentrated stock solutions were diluted with an aqueous mixture of 1.5% v/v of Agri-dex crop oil concentrate to provide the appropriate application rates. Compound requirements are based upon a 12 milliliter (mL) application volume at a rate of 187 liters per hectare (L/ha). Spray solutions of the experimental compound mixtures were prepared by adding the stock solutions to the appropriate amount of dilution solution to form a 12 mL spray solution in two-way combinations. Formulated compounds were applied to the plant material with an overhead Mandel track sprayer equipped with 8002E nozzles calibrated to deliver 187 L/ha over an application area of 0.503 square meters (m^2) at a spray height of 18 inches (43 centimeters (cm)) above average plant canopy. Control plants were sprayed in the same manner with the solvent blank. Application rates for component (a) are in g ae/ha, and application rates for component (b) are in g ai/ha.
The treated plants and control plants were placed in a greenhouse as described above and watered by sub-irrigation to prevent wash-off of the test compounds. After 20-22 d, the condition of the test plants as compared with that of the control plants was determined visually and scored on a scale of 0 to 100 percent where 0 corresponds to no injury and 100 corresponds to complete kill. The condition of the test plants was compared with that of the control plants as determined visually and scored on a scale of 0 to 100 percent, where 0 corresponds to no injury and 100 corresponds to complete kill. Colby's equation was used to determine the herbicidal effects expected from the mixtures.
Compound 2 was combined with florasulam and applied to winter wheat (TRZAW) and the phytotoxicity of the herbicidal composition was measured. In addition, the efficacy of the herbicidal composition on poinsettia (Euphorbia heterophylla, EPHHL) and […] (Cyperus esculentus, CYPES) was evaluated.
Weighed amounts of technical or formulated material (emulsifiable concentrate (EC) or soluble concentrate (SL)) were dissolved in a volume of 97:3 volume per volume (v/v) acetone/dimethyl sulfoxide (DMSO) to stock solutions. […] The concentrated stock solutions were diluted with an aqueous mixture of 1.5% v/v of Agri-dex crop oil concentrate to provide the appropriate application rates. Compound requirements are based upon a 12 milliliter (mL) application volume at a rate of 187 liters per hectare (L/ha). Spray solutions of the experimental compound mixtures were prepared by adding the stock solutions to the appropriate amount of dilution solution to form a 12 mL spray solution in two-way combinations. […]

## Nc1c(F)c(-c2ccc3cc[nH]c3c2F)nc(C(=O)O)c1Cl [Compound 1]
[1]; 5 g ae/ha
  % visual injury Obs: 30% and 40%
[1]; 10 g ae/ha
  % visual injury Obs: 45%
[1]; BRSNW, Compound 1 5 g ae/ha
  % visual injury Obs: 50% and 40%
[1]; BRSNW, Compound 1 10 g ae/ha
  % visual injury Obs: 45%
[2]; 5 g ae/ha
  pest or weed control at 5 g/ha: 80%
[2]; 10 g ae/ha
  pest or weed control at 10 g/ha: 100%
[2]; CHEAL, Compound 1 5 g ae/ha
  pest or weed control at 5 g/ha: 90%
[2]; CHEAL, Compound 1 10 g ae/ha
  pest or weed control at 10 g/ha: 100%
[3]; 5 g ae/ha
  % visual injury Obs: 0%
[3]; 10 g ae/ha
  % visual injury Obs: 0%
[4]; 10 g ae/ha
  pest or weed control at 10 g/ha: 10%
[4]; IPOHE, Compound 1 10 g ae/ha
  pest or weed control at 10 g/ha: 10%
[5]; 10 g ae/ha
  pest or weed control at 10 g/ha: 60%
[5]; ECHCG, Compound 1 5 g ae/ha
  pest or weed control at 5 g/ha: 50%
[6]; 5 g ae/ha
  pest or weed control at 5 g/ha: 50%
[6]; 10 g ae/ha
  pest or weed control at 10 g/ha: 70%
[6]; STEME, Compound 1 5 g ae/ha
  pest or weed control at 5 g/ha: 70%
[6]; STEME, Compound 1 10 g ae/ha
  pest or weed control at 10 g/ha: 70%
[7]; 5 g ae/ha
  % visual injury Obs: 90%
[7]; 10 g ae/ha
  % visual injury Obs: 90%
[7]; HELAN, Compound 1 5 g ae/ha
  % visual injury Obs: 70%
[8]; 5 g ae/ha
  % visual injury Obs: 10%
[8]; 10 g ae/ha
  % visual injury Obs: 50%
[8]; SETFA, Compound 1 5 g ae/ha
  % visual injury Obs: 10%
[8]; SETFA, Compound 1 10 g ae/ha
  % visual injury Obs: 50%
[9]; 5 g ae/ha
  % visual injury Obs: 50%
[9]; BRSNN, Compound 1 5 g ae/ha
  % visual injury Obs: 70%

## CCCOc1nn(C(=O)NS(=O)(=O)c2ccccc2C(=O)OC)c(=O)n1C [Propoxycarbazone, propoxycarbazone]
[10]
  % visual injury Obs: 10%
[2]; 7.5 g ai/ha
  pest or weed control at […]: 30%
[3]; 7.5 g ai/ha
  % visual injury Obs: 85%
[4]; 7.5 g ai/ha
  pest or weed control at […]: 95%
[5]; 7.5 g ai/ha
  pest or weed control at […]: 95%
[6]; 7.5 g ai/ha
  pest or weed control at […]: 50%
[7]; 7.5 g ai/ha
  % visual injury Obs: 85%

Source: US20190364896A1, “SYNERGISTIC WEED CONTROL FROM APPLICATIONS OF PYRIDINE CARBOXYLIC ACID HERBICIDES AND ALS INHIBITORS” (Dow AgroSciences LLC, priority 2014, published 2019)
